Source: patent US9868746B2, “Substituted 5-aminothieno[2,3-C]pyridazine-6-carboxamide analogs as positive allosteric modulators of the muscarinic acetylcholine receptor M4” (Vanderbilt University, priority 2012, dated 2018)
Like-named read-outs stand apart in the source and are kept apart here.

Molecular target: T1, mAChR M4 (Homo sapiens, UniProt P08173)
T1 construct: expressed in transfected cells; host or cells: CHO-K1 cells stably transfected with M4 cDNA and chimeric G-protein Gqi5
T1 sequence (P08173 1-479): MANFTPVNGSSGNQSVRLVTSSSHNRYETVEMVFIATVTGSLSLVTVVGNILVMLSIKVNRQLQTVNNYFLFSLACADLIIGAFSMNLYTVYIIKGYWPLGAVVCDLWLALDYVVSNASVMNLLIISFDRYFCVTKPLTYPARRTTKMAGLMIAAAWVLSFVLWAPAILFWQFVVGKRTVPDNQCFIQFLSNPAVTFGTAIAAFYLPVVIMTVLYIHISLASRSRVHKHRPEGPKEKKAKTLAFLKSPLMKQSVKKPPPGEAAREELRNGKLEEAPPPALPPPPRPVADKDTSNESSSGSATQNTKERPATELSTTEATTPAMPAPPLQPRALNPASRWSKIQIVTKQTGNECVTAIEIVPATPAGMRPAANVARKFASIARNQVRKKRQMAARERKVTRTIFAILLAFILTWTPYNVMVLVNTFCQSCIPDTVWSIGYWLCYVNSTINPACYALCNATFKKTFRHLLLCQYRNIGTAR
Assay: mAChR M4 cell-based functional assay (calcium mobilization, potentiation of EC20 acetylcholine response)
Details: for Emax at 30 µM: % ACh maximum at 30 μM

[1] = mAChR M4 cell-based functional assay, >10,000 estimated for low potency compounds without plateau, read-out: EC50

SMILES | Emax at 30 µM | EC50 [1] | EC50 (EC50 (nM))
Cc1nnc2sc(C(=O)N3CC(NCc4ccncc4)C3)c(N)c2c1C [Example B60] | 41% | > 10000 nM | 
COc1ccc(CNC2CN(C(=O)c3sc4nnc(C)c(C)c4c3N)C2)cc1 [Example B61] | 55% | 4600 nM | 
Cc1nnc2sc(C(=O)N3CC(NCc4cccnc4)C3)c(N)c2c1C [Example B62] | 34% | > 10000 nM | 
Cc1nnc2sc(C(=O)N3CC(NCCC(C)C)C3)c(N)c2c1C [Example B63] | 41% | > 10000 nM | 
Cc1nnc2sc(C(=O)N3CC(NCc4ccco4)C3)c(N)c2c1C [Example B64] | 41% | > 10000 nM | 
Cc1nnc2sc(C(=O)N3CC(NCc4ccccc4)C3)c(N)c2c1C [Example B65] | 56% | 3600 nM | 
Cc1nnc2sc(C(=O)NCc3ccc(S(=O)(=O)C(F)(F)F)cc3)c(N)c2c1C [Example B66] | 62% |  | 
Cc1nnc2sc(C(=O)NC(C)(C)C)c(N)c2c1C [Example B68] | 68% | 2600 nM | 
Cc1nnc2sc(C(=O)N3CC[C@H](F)C3)c(N)c2c1C [Example B69] | 48% | > 10000 nM | 
Cc1nnc2sc(C(=O)Nc3nccs3)c(N)c2c1C [Example B70] | 37% | 1200 nM | 
Cc1cncc(NC(=O)c2sc3nnc(C)c(C)c3c2N)c1 [Example B71] | 31% | 460 nM | 
COc1cncc(NC(=O)c2sc3nnc(C)c(C)c3c2N)c1 [Example B72] | 30% | 380 nM | 
COc1ccc(C(C)CNC(=O)c2sc3nnc(C)c(C)c3c2N)cc1 (stereo not shown) [Example B73] | 40% | 350 nM | 
COc1ccc(C2(CNC(=O)c3sc4nnc(C)c(C)c4c3N)CC2)cc1 [Example B75] | 41% | 360 nM | 
CS(=O)(=O)c1ccc(CNC(=O)c2sc3nnc(Cl)cc3c2N)cc1 [Example B76] | 55% | 490 nM | 
Cc1nnc2sc(C(=O)N[C@@H]3CCN(S(C)(=O)=O)C3)c(N)c2c1C [Example B77] | 53% | 3500 nM | 
COc1ccc(C2CC2N(C)C(=O)c2sc3nnc(C)c(C)c3c2N)cc1 (stereo not shown) [Example B79] | 35% | > 10000 nM | 
Cc1nnc2sc(C(=O)NC3CNC3)c(N)c2c1C [Example B81] | 34% | > 10000 nM | 

SMILES | Emax at 30 µM | EC50 [1] | EC50 (EC50 (nM))
Cc1nnc2sc(C(=O)N[C@H]3CCN(S(C)(=O)=O)C3)c(N)c2c1C [Example B82] | 59% | 460 nM | 
Cc1nnc2sc(C(=O)NC3CCC3)c(N)c2c1C [Example B84] | 61% | 1000 nM | 
Cc1cc(NC(=O)c2sc3nnc(C)c(C)c3c2N)ccn1 [Example B88] | 43% | 400 nM | 
COc1ccc(CNC(=O)c2sc3nnc(C)c(C)c3c2N)cc1F [Example B90] | 58% |  | 
Cc1nnc2sc(C(=O)NCc3ccc(S(=O)(=O)C4CC4)cc3)c(N)c2c1C [Example B92] | 53% |  | 23 nM
Cc1nnc2sc(C(=O)NCCc3ccncc3)c(N)c2c1C [Example B93] | 49% | 2300 nM | 
Cc1nnc2sc(C(=O)NCCc3ccccn3)c(N)c2c1C [Example B94] | 47% | 5000 nM | 
Cc1nnc2sc(C(=O)NC3CCCOC3)c(N)c2c1C (stereo not shown) [Example B96] | 64% | > 10000 nM | 
Cc1nnc2sc(C(=O)NC3CCCCC3)c(N)c2c1C [Example B97] | 75% | 1500 nM | 
Cc1nnc2sc(C(=O)NCc3ccco3)c(N)c2c1C [Example B102] | 81% | 1300 nM | 
Cc1nnc2sc(C(=O)N3CCCC(c4ccccc4)C3)c(N)c2c1C (stereo not shown) [Example B107] | 52% | 1700 nM | 
Cc1nnc2sc(C(=O)N3CCC(c4ccccc4)C3)c(N)c2c1C (stereo not shown) [Example B112] | 61% | 630 nM | 
Cc1ccc(S(=O)(=O)N2CCCN(C(=O)c3sc4nnc(C)c(C)c4c3N)CC2)cc1 [Example B114] | 48% | 1600 nM | 
Cc1nnc2sc(C(=O)N3CCC(c4ccccc4)CC3)c(N)c2c1C [Example B115] | 38% | 3900 nM | 
Cc1nnc2sc(C(=O)NCc3ccc(S(=O)(=O)C(F)F)cc3)c(N)c2c1C [Example B117] | 66% |  | 18 nM
Cc1nnc2sc(C(=O)NC3CN(C(=O)C(C)(C)C)C3)c(N)c2c1C [Example B121] | 92% | 840 nM | 
Cc1nnc2sc(C(=O)NC3CN(C(=O)N4CCCCC4)C3)c(N)c2c1C [Example B125] | 58% | 1000 nM | 

The remaining compounds from weak to strong by EC50 [1], led by results:

Emax at 30 µM | EC50 [1] | SMILES | EC50 (EC50 (nM))
51% | 350 nM | Cc1nnc2sc(C(=O)Nc3ccc4cn[nH]c4c3)c(N)c2c1C [Example B67] | 
58% | 320 nM | Cc1nnc2sc(C(=O)NCc3cnn(C)c3)c(N)c2c1C [Example B89] | 
92% | 290 nM | Cc1nnc2sc(C(=O)NC3CN(C(=O)c4ccccn4)C3)c(N)c2c1C [Example B126] | 
57% | 280 nM | Cc1nnc2sc(C(=O)NC3CCCC3)c(N)c2c1C [Example B87] | 
63% | 230 nM | Cc1nnc2sc(C(=O)NCc3ccc(F)c(S(C)(=O)=O)c3)c(N)c2c1C [Example B78] | 
68% | 210 nM | Cc1nnc2sc(C(=O)NC3CN(S(C)(=O)=O)C3)c(N)c2c1C [Example B80] | 
86% | 190 nM | Cc1nnc2sc(C(=O)NC3CN(C(=O)CCCc4ccccc4)C3)c(N)c2c1C [Example B120] | 
68% | 180 nM | Cc1nnc2sc(C(=O)NC3CN(S(=O)(=O)c4ccoc4)C3)c(N)c2c1C [Example B100] | 
88% | 180 nM | Cc1nnc2sc(C(=O)NC3CN(C(=O)C4CCC4)C3)c(N)c2c1C [Example B122] | 
69% | 170 nM | Cc1nnc2sc(C(=O)NCc3ccc(CS(C)(=O)=O)cc3)c(N)c2c1C [Example B74] | 
65% | 160 nM | Cc1nnc2sc(C(=O)NC3CN(S(=O)(=O)c4ccco4)C3)c(N)c2c1C [Example B99] | 
75% | 160 nM | Cc1nnc2sc(C(=O)N3CC(c4ccccc4)C3)c(N)c2c1C [Example B116] | 
63% | 150 nM | Cc1nnc2sc(C(=O)NCc3ccc(C(C)S(C)(=O)=O)cc3)c(N)c2c1C (stereo not shown) [Example B104] | 
97% | 130 nM | Cc1nnc2sc(C(=O)NC3CN(C(=O)C4CCCCC4)C3)c(N)c2c1C [Example B123] | 
78% | 120 nM | Cc1nnc2sc(C(=O)NC3CC3c3ccc(S(C)(=O)=O)cc3)c(N)c2c1C (stereo not shown) [Example B109] | 
53% | 97 nM | COCc1ccc(CNC(=O)c2sc3nnc(C)c(C)c3c2N)cc1 [Example B91] | 

Emax at 30 µM | EC50 [1] | SMILES | EC50 (EC50 (nM))
69% | 94 nM | Cc1nc(C)c(S(=O)(=O)N2CC(NC(=O)c3sc4nnc(C)c(C)c4c3N)C2)s1 [Example B103] | 
82% | 85 nM | COc1cccc(C(=O)N2CC(NC(=O)c3sc4nnc(C)c(C)c4c3N)C2)c1 [Example B127] | 
66% | 84 nM | Cc1nc(C(F)(F)F)c(S(=O)(=O)N2CC(NC(=O)c3sc4nnc(C)c(C)c4c3N)C2)s1 [Example B101] | 
68% | 82 nM | Cc1nnc2sc(C(=O)NC3CN(S(=O)(=O)CC(F)(F)F)C3)c(N)c2c1C [Example B119] | 
62% | 80 nM | Cc1nnc2sc(C(=O)NCc3ccc4ccccc4c3)c(N)c2c1C [Example B86] | 
66% | 63 nM | Cc1ccc(S(=O)(=O)N2CC(NC(=O)c3sc4nnc(C)c(C)c4c3N)C2)s1 [Example B98] | 
66% | 55 nM | Cc1nnc2sc(C(=O)NCc3ccc(C4(S(C)(=O)=O)CC4)cc3)c(N)c2c1C [Example B105] | 
58% | 47 nM | Cc1nnc2sc(C(=O)NCc3c(F)ccc(F)c3Cl)c(N)c2c1C [Example B85] | 
66% | 47 nM | Cc1nnc2sc(C(=O)NCc3ccc(O)cc3)c(N)c2c1C [Example B95] | 
61% | 44 nM | Cc1nnc2sc(C(=O)NCc3ccc(S(=O)(=O)C(C)(C)C(F)(F)F)cc3)c(N)c2c1C [Example B108] | 
58% | 29 nM | Cc1nnc2sc(C(=O)NC3CN(C(=O)OC(C)(C)C)C3)c(N)c2c1C [Example B83] | 
66% | 24 nM | Cc1nnc2sc(C(=O)NC3CCN(c4ccccc4)C3)c(N)c2c1C (stereo not shown) [Example B113] | 
58% | 22 nM | Cc1nnc2sc(C(=O)NC3CN(C(=O)OCc4ccccc4)C3)c(N)c2c1C [Example B124] | 
71% | 20 nM | Cc1nnc2sc(C(=O)NCc3ccc(C(C)(O)C(F)(F)F)cc3)c(N)c2c1C (stereo not shown) [Example B106] | 
66% | 10 nM | Cc1nnc2sc(C(=O)NCc3ccc(S(=O)(=O)C(C)(F)F)cc3)c(N)c2c1C [Example B118] | 
